From ChEMBL document CHEMBL1201862, “PubChem BioAssay data set” (2004)
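Grown in 96-well plates, cells were treated for 48 hours with each compound at five concentrations. Insufficient inhibition: endpoint recorded as highest concentration tested. GI50 is the concentration that inhibits growth by half.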 Calls of active or inactive are those of the source. Cut-off read from the data, not from the text of the source: active = GI50 up to about 1.1 µM and inactive = higher.

Assays:
Assay in all cases: NCI anticancer screen, dose series, 48 h
SK-MEL-2 = tested on: SK-MEL-2
LOX IMVI = tested on: LOX IMVI
SK-MEL-28 = tested on: SK-MEL-28
SNB-75 = tested on: SNB-75
TK-10 = tested on: TK-10
SR = tested on: SR
CAKI-1 = tested on: CAKI-1
ACHN = tested on: ACHN
SF-268 = tested on: SF-268
HL-60 = tested on: HL-60
OVCAR-8 = tested on: OVCAR-8
HT-29 = tested on: HT-29
SW-620 = tested on: SW-620
UACC-62 = tested on: UACC-62
A498 = tested on: A498
HCC 2998 = tested on: HCC 2998

Measured: GI50

Oc1cc(-c2ccccc2)c2ccccc2n1
inactive: SK-MEL-2 72.1 µM | LOX IMVI 57.9 µM | SK-MEL-28 37.3 µM | SNB-75 13 µM | TK-10 38.6 µM | SR 45.5 µM | CAKI-1 13.4 µM | ACHN 33.4 µM | SF-268 52.6 µM | HL-60 88.1 µM | OVCAR-8 > 100 µM | HT-29 > 100 µM | SW-620 > 100 µM | UACC-62 48.3 µM

[N-]=[N+]=Nc1ccc(CCN2CCN(c3cccc(C(F)(F)F)c3)CC2)cc1I
inactive: SK-MEL-2 38.4 µM | LOX IMVI > 100 µM | SK-MEL-28 > 100 µM | SNB-75 41.7 µM | TK-10 > 100 µM | SR 35.1 µM | CAKI-1 40.1 µM | ACHN > 100 µM | SF-268 > 100 µM | HL-60 12.8 µM | OVCAR-8 > 100 µM | HT-29 29.4 µM | SW-620 70.3 µM | A498 > 100 µM | UACC-62 > 100 µM

CCNC1C2(CCCCC2)NC(=O)C12CCCCC2 (centres undefined)
inactive: SK-MEL-2 > 100 µM | SK-MEL-28 > 100 µM | SNB-75 > 100 µM | TK-10 > 100 µM | CAKI-1 > 100 µM | ACHN > 100 µM | HL-60 > 100 µM | OVCAR-8 > 100 µM | HT-29 > 100 µM | HCC 2998 > 100 µM | SW-620 > 100 µM | A498 > 100 µM | UACC-62 > 100 µM

Cn1nc(-c2ccccc2)c(C(=O)/C=C/c2ccccc2)c(N2CCCCC2)c1=O
inactive: LOX IMVI 11.7 µM | SK-MEL-28 14.5 µM | TK-10 > 100 µM | CAKI-1 22.2 µM | ACHN 46.1 µM | SF-268 23.7 µM | HL-60 2.72 µM | OVCAR-8 42 µM | HT-29 11.7 µM | SW-620 34 µM | UACC-62 15.9 µM

CCCCc1c2c(nc3c1CCC/C3=C\c1ccccc1)/C(=C/c1ccccc1)CCC2
inactive: LOX IMVI > 100 µM | SK-MEL-28 > 100 µM | TK-10 > 100 µM | SR > 100 µM | ACHN > 100 µM | SF-268 > 100 µM | HL-60 > 100 µM | OVCAR-8 > 100 µM | HT-29 > 100 µM | HCC 2998 > 100 µM | SW-620 > 100 µM | UACC-62 > 100 µM

CCOC(=O)C1(C)C2=CC=C(O2)C(C)(C)C2=CC=C(O2)C(C)(C)C2=CC=C(O2)C(C)(C)C2=CC=C1O2
inactive: SK-MEL-2 > 100 µM | LOX IMVI > 100 µM | SK-MEL-28 > 100 µM | TK-10 > 100 µM | SR 68.1 µM | CAKI-1 > 100 µM | ACHN > 100 µM | SF-268 > 100 µM | HL-60 55.3 µM | OVCAR-8 76.2 µM | HT-29 > 100 µM | HCC 2998 > 100 µM | SW-620 > 100 µM | A498 > 100 µM

O=C(CC(=O)Nc1ccc(Cl)cc1)NNCC(=O)Nc1nc(-c2ccccc2)cs1
inactive: LOX IMVI > 100 µM | SK-MEL-28 > 100 µM | SNB-75 > 100 µM | TK-10 > 100 µM | SF-268 > 100 µM | HL-60 > 100 µM | OVCAR-8 > 100 µM | HT-29 > 100 µM | HCC 2998 > 100 µM | SW-620 > 100 µM | UACC-62 47.5 µM

COC(=O)C1CCc2c1c(=O)n1c([nH]c3ccccc31)c2C#N (centres undefined)
inactive: SK-MEL-2 > 100 µM | LOX IMVI > 100 µM | SK-MEL-28 > 100 µM | SNB-75 > 100 µM | TK-10 > 100 µM | CAKI-1 > 100 µM | ACHN > 100 µM | SF-268 > 100 µM | HL-60 > 100 µM | OVCAR-8 > 100 µM | HT-29 > 100 µM | HCC 2998 > 100 µM | SW-620 > 100 µM | A498 > 100 µM | UACC-62 > 100 µM

CC(C)(C)c1ccc(OC2CCO2)cc1 (centres undefined)
inactive: SK-MEL-28 98.6 µM | SNB-75 53.8 µM | TK-10 42.4 µM | CAKI-1 38.1 µM | ACHN 34.5 µM | SF-268 33.6 µM | OVCAR-8 38.6 µM | HT-29 23.1 µM | HCC 2998 27.5 µM | SW-620 17.1 µM | A498 43.2 µM | UACC-62 24 µM

O=C(O)C1C2CCC(O2)C1C(=O)N1CCCCC1 (centres undefined)
inactive: SK-MEL-2 8.17 µM | LOX IMVI 10.2 µM | SK-MEL-28 5.83 µM | SNB-75 4.51 µM | TK-10 2.99 µM | SR 3.68 µM | ACHN 4.54 µM | SF-268 13.2 µM | OVCAR-8 4.61 µM | HT-29 4.07 µM | HCC 2998 4.11 µM | SW-620 3.43 µM | A498 1.28 µM | UACC-62 5.26 µM

COc1cc(/C=C\c2ccccn2)cc(OC)c1OC
inactive: LOX IMVI 64 µM | SK-MEL-28 > 100 µM | SNB-75 47.3 µM | TK-10 > 100 µM | CAKI-1 > 100 µM | ACHN > 100 µM | SF-268 > 100 µM | HL-60 31 µM | OVCAR-8 > 100 µM | HT-29 46.3 µM | SW-620 41.8 µM | A498 78.5 µM | UACC-62 60 µM
